Nine molecules from patent publication US20190352276A1, “INHIBITORS OF BRUTON'S TYROSINE KINASE” (Joint Stock Company "Biocad", priority 2016, published 2019) can be followed below.

pIC50: −log10 of the molar value.

The test system of data set [1] is HepG2 cells (hepatocellular carcinoma). In words: General cytotoxicity on HepG2 cells (CC50; therapeutic index CC50 HepG2/IC50 Mino). In kind it is cell-based. The note with it: Table 10; therapeutic index. The gist of the method:
(§1)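 Alamar Blue viability after 72 h exposure to compounds (final 200 μM–4 μM) gave CC50; HepG2 plated 2*10^4/well in DMEM 24 h beforehand. Therapeutic index expressed as ratio of HepG2 CC50 to Mino antiproliferative IC50.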

Experiment in data set [2]: as above
In kind it is cell-based. Particulars: human, HepG2 cells (hepatocellular carcinoma); Table 10; 72 hours, Alamar Blue; average of several tests. In outline:
as §1

The subject of data set [3] is Z-138 (mantle cell lymphoma). In words: Antiproliferative activity, Z-138 cells (Alamar Blue). The note with it: Homo sapiens, Table 10, 72 h, average of several tests. In kind it is cell-based. In outline: (§2)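 A 72 h growth-inhibition assay using Alamar Blue fluorescence as the viability readout, with IC50 taken from a four-parameter logistic curve.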
A general note: Alamar Blue is a resazurin reagent that responds to reducing activity.

A short description of data set [4]: Stability in human blood plasma. The note with it: 10 μM in pooled human blood plasma, incubated 4 hours at 37° C.
Data set [5] has as its system Mino (mantle cell lymphoma). In words: Antiproliferative activity, Mino cells (Alamar Blue). Particulars: Homo sapiens, Table 10, 72 h, average of several tests. The class given is cell-based. In outline: as §2
The test system of data set [6] is DOHH2 (follicular lymphoma). Put plainly: Antiproliferative activity, DOHH2 cells (Alamar Blue). Particulars: Homo sapiens, DOHH-2, Table 10, 72 h, average of several tests. The class given is cell-based. As for the experimental part: Antiproliferative activity of BTK inhibitors was measured in cell-based bioassay on B-cells cultures: Mino (mantle cell lymphoma, ATCC® CRL-3000™), Z-138 (mantle cell lymphoma, ATCC® CRL-3001™) and DOHH2 (follicular lymphoma, Creative Bioarray CSC-C0219) using cell viability reagent Alamar Blue (Invitrogen, #DAL 1100). Cells were cultured in 10% FB S-supplemented (HyClone, #SH3008803/Gibco, #16140-071) RPMI-1640 (PanEco, #S330p) for at least 1 passage after thawing, washed with PBS and passaged in 96-well culture plates (Corning, #3599) with growth medium with 10% FBS (HyClone, #SH3008803/Gibco, #16140-071) and antibiotic (50 μg/ml of gentamicin (Biolot, #1.3.16))≈3*10^4 cells in 50 μl of medium per well.
The compounds were dissolved in DMSO and diluted with the assay medium to final concentrations ranging from […]. 150 μl of each diluted compound were then added to each well (final concentration of DMSO was less than 1%) and incubated at 37° C. in an incubator under 5% of CO2 for 72 h. After incubation, 20 μl of Alamar Blue reagent (Invitrogen, #DAL1100) were added to each well. The plates were shaked on an orbital shaker (Biosan, Latvia) and then incubated for 14-16 hours at 37° C. in the incubator.
The number of living cells were estimated, measuring the fluorescence signal at the excitation wavelength (REx) of 540 nm and the emission wavelength (λEm) of 590 nm on a microplate reader (Tecan Infinite M200Pro, Switzerland).
For each compound, IC50 was calculated using Magellan 7.2 software (Tecan, Switzerland) approximating experimental points by four-parameter logistic model with the optimization by Levenberg-Marquardt.

A short description of data set [7]: Permeability through the monolayer of Caco-2 cells. The class given is in vitro ADME. The note with it: human; for Papp A→B at 2 h, 10 μM / Papp B→A at 2 h, 10 μM: 2 h at 37° C.; for efflux ratio at 2 h, 10 μM: read-out: efflux (Papp B-A/Papp A-B). From the text:
Assessment of permeability through the monolayer of Caco-2 cells allows to evaluate the ability of the candidate compounds to penetrate through biological membranes by active and passive transport.
Caco-2, the cells of the intestinal epithelium, had been cultured in transwell plate inserts with the filters (with pores of 0.4 μm, BD Falcon with High Density, #353495) for 21 days, and then the integrity of the monolayer were estimated with Lucifer Yellow dye (Sigma-Aldrich, USA) by standard protocol. When setting the A→B transfer, solutions of test substances were added in a buffer with pH 6.5 (Hanks solution, 10 mM HEPES, 15 mM glucose solution) with the concentration of 10 μM into the upper chamber; the lower chamber was filled with a buffer with pH 7.4 (Hanks solution, 10 mM HEPES, 15 mM glucose solution, 1% BSA). When setting B→A transfer, the upper chamber was filled with the buffer with pH 6.5, and solutions of the test substances were added in the buffer with pH 7.4 at the concentration of 10 μM in the lower chamber. Propranolol was used as a control substance (as it has high permeability).
We used gradient elution (1 mL/min flow rate). We determined the areas of peaks corresponding to the compounds. On the basis of peak areas in the calibration standards we determined the concentration of compound in the initial solution and in the samples from the wells of the upper and lower chambers.
Papp, permeability through the cell layer, was calculated using the following formula:
Papp=(C(t)*V)/(C(0)*t*Area), where
Papp is the effective constant of permeability, m/s V is the volume of solution (0.8 ml in A→B test, 0.2 ml in B→A test), ml Area is the surface area of the membrane (0.33 cm^2), cm^2 t is the time of incubation (7200 sec), sec C(0) is the concentration of the initial solution, μM C(t) is the concentration of the solution after 2 hours (the concentration in the sample from the well of the lower chamber in A→B test; the concentration in the sample from the well of the top chamber in B→A test), μM
The value was calculated with the following formula:
efflux=Papp B-A/Papp A-B, where
Papp A-B is the value of the permeability in the direct test (A→B); Papp B-A is the value of the permeability in the backward test in (B→A).
In general terms: Passage across Caco-2 layers is used to estimate intestinal permeability.

A short description of data set [8]: Chemical stability in artificial gastric fluid (SGF without enzymes). The note with it: 10 μM in SGF without enzymes, pH=1.4, 37° C.

On to `C=CC(=O)N1CCC[C@@H](n2nc(-c3ccc(-n4ccc(=O)cc4)cc3F)c3cncc(Cl)c32)C1` [BCD-BTK-204, (R)-1-(4-(1-(1-acryloylpiperidin-3-yl)-7-chloro-1H-pyrazolo[4,3-c]pyridin-3-yl)-3-fluorophenyl)pyridin-4(1H)-one], for which the “CC50 (HepG2)/IC50 (Mino)” value in data set [1] is given as 2.95. The CC50 at 72 h in data set [2] came out at 62 µM. Further, the negative logarithm of the IC50 (pIC50) in data set [3] was 4.68; in data set [5], 4.68; in data set [6] it was 4.63. In data set [4], the “Amount of substance in the sample, % (stability in human blood plasma)” value (from here on “Amount of substance in the sample, %”) came to 91.9%.

Turning to `C=CC(=O)N1CCC[C@@H](n2nc(-c3ccc(-n4ccc(=O)cc4)c(F)c3)c3cncc(Cl)c32)C1` [BCD-BTK-205, (R)-1-(4-(1-(1-acryloylpiperidin-3-yl)-7-chloro-1H-pyrazolo[4,3-c]pyridin-3-yl)-2-fluorophenyl)pyridin-4(1H)-one], in data set [1], the “CC50 (HepG2)/IC50 (Mino)” value is recorded as 3.45. In data set [2], this molecule showed a cytotoxic concentration (CC50) at 72 h of 57.2 µM. In addition, the results for the pIC50 in data set [3], in data set [5] and in data set [6] were 4.60, 4.78 and 4.70, respectively. In addition, in data set [4], the “Amount of substance in the sample, %” value worked out at 88.6%.

With `C=CC(=O)N1CCC[C@@H](n2nc(-c3ccc(Oc4ccncc4)cc3)c3cncc(F)c32)C1` [BCD-BTK-211, (R)-1-(3-(7-fluoro-3-(4-(pyridin-4-yloxy)phenyl)-1H-pyrazolo[4,3-c]pyridin-1-yl)piperidin-1-yl)prop-2-en-1-one], the “CC50 (HepG2)/IC50 (Mino)” value in data set [1] is reported as 7.97. In data set [2], this molecule had a 50% cytotoxic concentration (CC50) at 72 h of 45.2 µM. This molecule also had a pIC50 in data set [3] of 4.76. In data set [7], the Papp A→B at 2 h, 10 μM was 19.2 ×10⁻⁶ cm/s; the Papp B→A at 2 h, 10 μM amounted to 3.55 ×10⁻⁶ cm/s; the efflux ratio at 2 h, 10 μM is 0.18. Besides, the “Amount of substance in the sample, %” value in data set [4] stood at 94.8%. In data set [5], this molecule gave a pIC50 of 5.25. Also, the negative-log IC50 (pIC50) in data set [6] was 4.64.

For the molecule `C=CC(=O)N1CCC[C@@H](n2nc(-c3ccc(Oc4ccncc4C#N)cc3)c3cncc(C#N)c32)C1` [BCD-BTK-213, (R)-1-(1-acryloylpiperidin-3-yl)-3-(4-(3-cyanopyridin-4-yloxy)phenyl)-1H-pyrazolo[4,3-c]pyridine-7-carbonitrile], in data set [1], the “CC50 (HepG2)/IC50 (Mino)” value was above 31.3. Further, the CC50 at 72 h in data set [2] is above 100 µM. This molecule had a negative logarithm of the IC50 (pIC50) in data set [3] of 5.01. Moreover, in data set [7], the Papp A→B at 2 h, 10 μM turned out to be 8.39 ×10⁻⁶ cm/s; the Papp B→A at 2 h, 10 μM was determined as 5.17 ×10⁻⁶ cm/s; the efflux ratio at 2 h, 10 μM turned out to be 0.62. Moreover, the negative-log IC50 (pIC50) in data set [5] was 5.50. Moreover, the pIC50 in data set [6] is 4.71.

Turning to `C=CC(=O)N1CCC[C@@H](n2nc(-c3ccc(Oc4cccnc4C#N)cc3)c3cncc(C#N)c32)C1` [BCD-BTK-216, (R)-1-(1-acryloylpiperidin-3-yl)-3-(4-(2-cyanopyridin-3-yloxy)phenyl)-1H-pyrazolo[4,3-c]pyridine-7-carbonitrile], in data set [1], the “CC50 (HepG2)/IC50 (Mino)” value was determined as 18.77. The CC50 at 72 h in data set [2] is 40.1 µM. Moreover, the negative-log IC50 (pIC50) in data set [3] is 4.92. In data set [7], the apparent permeability from apical to basolateral (Papp A→B) at 2 h, 10 μM stood at 29.6 ×10⁻⁶ cm/s; the Papp B→A at 2 h, 10 μM worked out at 8.72 ×10⁻⁶ cm/s; the efflux ratio at 2 h, 10 μM was found to be 0.29. In addition, the “Amount of substance in the sample, %” value in data set [4] is recorded as 80.4%. The pIC50 in data set [5] was 5.67. In data set [6], the negative logarithm of the IC50 (pIC50) is 5.02.

On to `C=CC(=O)N1CCC[C@@H](n2nc(-c3ccc(C(=O)Nc4cc(C(F)(F)F)ccn4)cc3)c3cncc(C#N)c32)C1` [BCD-BTK-221, 4-{7-cyano-1-[1-(prop-2-enoyl)piperidin-3-yl]-1H-pyrazolo[4,3-c]pyridin-3-yl}-N-[4-(trifluoromethyl)pyridin-2-yl]benzamide], for which, in data set [1], the “CC50 (HepG2)/IC50 (Mino)” value turned out to be 0.51. Further, in data set [2], the CC50 at 72 h was determined as 5.32 µM. The pIC50 was 5.30 in data set [3], 4.98 in data set [5] and 5.52 in data set [6]. Besides, in data set [4], the “Amount of substance in the sample, %” value worked out at 80.5%. The “Amount of substance in the sample in % (chemical stability)” value (“Amount of substance in the sample in %” for short) in data set [8] turned out to be 91.3%.

As for `CC#CC(=O)N1CCC[C@H]1Cn1nc(-c2ccc(Oc3ccncc3)cc2)c2cncc(Cl)c21` [BCD-BTK-259, (S)-1-(2-((7-chloro-3-(4-(pyridin-4-yloxy)phenyl)-1H-pyrazolo[4,3-c]pyridin-1-yl)methyl)pyrrolidin-1-yl)but-2-yn-1-one], the “CC50 (HepG2)/IC50 (Mino)” value in data set [1] was 2.91. In data set [2], this molecule returned a CC50 at 72 h of 47.6 µM. Moreover, the pIC50 was 4.56 in data set [3], 4.79 in data set [5] and 4.77 in data set [6]. The “Amount of substance in the sample, %” value in data set [4] came to 90.7%. Besides, in data set [8], the “Amount of substance in the sample in %” value is listed as 100%.

Turning to `C=CC(=O)N1CCC[C@@H](n2nc(-c3ccc(C(=O)Nc4cc(C(F)(F)CCC)ccn4)cc3)c3cncc(C#N)c32)C1` [BCD-BTK-268, (R)-4-(1-(1-acryloylpiperidin-3-yl)-7-cyano-1H-pyrazolo[4,3-c]pyridin-3-yl)-N-(4-(1,1-difluorobutyl)pyridin-2-yl)benzamide], in data set [1], the “CC50 (HepG2)/IC50 (Mino)” value is listed as above 9.69. This molecule also came in with a cytotoxic concentration (CC50) at 72 h in data set [2] above 100 µM. Moreover, the pIC50 in data set [3] is 4.11; in data set [5], 4.99; in data set [6] it was 4.57. Moreover, the “Amount of substance in the sample, %” value in data set [4] was found to be 91.0%. Further, the “Amount of substance in the sample in %” value in data set [8] came out at 99.3%.

Turning to `C=CC(=O)N1CCC[C@@H](n2nc(-c3cnc(C(=O)Nc4cccc(F)n4)nc3)c3cncc(Cl)c32)C1` [BCD-BTK-277, (R)-5-(1-(1-acryloylpiperidin-3-yl)-7-chloro-1H-pyrazolo[4,3-c]pyridin-3-yl)-N-(6-fluoropyridin-2-yl)pyrimidine-2-carboxamide], the “CC50 (HepG2)/IC50 (Mino)” value in data set [1] came out at 2.33. Moreover, it took 41.9 µM to reach half-maximal cytotoxicity in data set [2] (CC50 at 72 h). The pIC50 in data set [3] is 4.52; in data set [5], 4.75; in data set [6] it was 4.69. Besides, the “Amount of substance in the sample in %” value in data set [8] is 99.8%.

The CC50 is the concentration that lowers cell viability or growth by half. A low value points to greater toxicity to the cells. Broadly, the pIC50 is the IC50 on a negative log10 scale, so that one unit is a factor of ten. A higher pIC50 goes with a low IC50. Broadly, the Papp A→B is the apparent permeability from the apical to the basolateral side of a cell layer. Higher therefore signals fast passage. The term Papp B→A denotes how fast a substance crosses the layer from the basolateral side.
